In ChEMBL document CHEMBL1649233, “In vitro bactericidal activity of iclaprim in human plasma” (Antimicrob Agents Chemother, 2009):
In brackets after ≈: the same amount, converted by molar mass.

Legend:
Staphylococcus aureus [1] = test: Ratio of MBC to MIC for methicillin-susceptible Staphylococcus aureus in presence of 50% human plasma; type: functional
Staphylococcus aureus [2] = test: Ratio of MBC to MIC for methicillin-susceptible Staphylococcus aureus; type: functional
[3] = Plasma protein binding in human; type: ADME, cell-free; details: read-out: PPB (converted)
Staphylococcus aureus [4] = test: Antimicrobial activity against methicillin-resistant Staphylococcus aureus by broth microdilution method; type: functional
Staphylococcus aureus [5] = test: Antimicrobial activity against methicillin-susceptible Staphylococcus aureus by broth microdilution method in presence of 50% human plasma; type: functional
Staphylococcus aureus [6] = test: Antimicrobial activity against methicillin-susceptible Staphylococcus aureus by broth microdilution method; type: functional
Staphylococcus aureus [7] = test: Antimicrobial activity against methicillin-resistant Staphylococcus aureus by broth microdilution method in presence of 50% human plasma; type: functional
Staphylococcus aureus [8] = test: Bactericidal activity against methicillin-susceptible Staphylococcus aureus after 24 hrs by M26-A method; type: functional
Staphylococcus aureus [9] = test: Bactericidal activity against methicillin-resistant Staphylococcus aureus after 24 hrs by M26-A method; type: functional
Staphylococcus aureus [10] = test: Bactericidal activity against methicillin-resistant Staphylococcus aureus after 24 hrs by M26-A method in presence of 50% human plasma; type: functional
Staphylococcus aureus [11] = test: Bactericidal activity against methicillin-susceptible Staphylococcus aureus after 24 hrs by M26-A method in presence of 50% human plasma; type: functional
Staphylococcus aureus [12] = test: Bactericidal activity against methicillin-resistant Staphylococcus aureus 50478 on CAMHB media at 4 times MIC by time kill analysis in presence of 50% human plasma; type: functional
Staphylococcus aureus [13] = test: Bactericidal activity against methicillin-susceptible Staphylococcus aureus ATCC 25923 on CAMHB media at 4 times MIC by time kill analysis in presence of 50% human plasma; type: functional
Staphylococcus aureus [14] = test: Bactericidal activity against methicillin-resistant Staphylococcus aureus 6 on CAMHB media at 4 times MIC by time kill analysis; type: functional
Staphylococcus aureus [15] = test: Bactericidal activity against methicillin-resistant Staphylococcus aureus 20 on CAMHB media at 4 times MIC by time kill analysis; type: functional
Staphylococcus aureus [16] = test: Bactericidal activity against methicillin-resistant Staphylococcus aureus 3817 on CAMHB media at 4 times MIC by time kill analysis in presence of 50% human plasma; type: functional
Staphylococcus aureus [17] = test: Bactericidal activity against methicillin-susceptible Staphylococcus aureus ATCC 25923 on CAMHB media at 4 times MIC by time kill analysis; type: functional
Staphylococcus aureus [18] = test: Bactericidal activity against methicillin-resistant Staphylococcus aureus 20 on CAMHB media at 4 times MIC by time kill analysis in presence of 50% human plasma; type: functional
Staphylococcus aureus [19] = test: Bactericidal activity against methicillin-resistant Staphylococcus aureus 3817 on CAMHB media at 4 times MIC by time kill analysis; type: functional
Staphylococcus aureus [20] = test: Bactericidal activity against methicillin-resistant Staphylococcus aureus 50478 on CAMHB media at 4 times MIC by time kill analysis; type: functional
Staphylococcus aureus [21] = test: Bactericidal activity against methicillin-resistant Staphylococcus aureus 6 on CAMHB media at 4 times MIC by time kill analysis in presence of 50% human plasma; type: functional
Staphylococcus aureus [22] = test: Ratio of MIC for glycopeptide-nonsusceptible Staphylococcus aureus NJ992 in presence of 50% heat inactivated serum to MIC for glycopeptide-nonsusceptible Staphylococcus aureus NJ992; type: functional

Q: What does the source list for `CC(=O)O[C@H]1C[C@@]2(C)[C@@H](C[C@@H](O)[C@H]3[C@@]4(C)CC[C@@H](O)[C@@H](C)[C@@H]4CC[C@@]32C)/C1=C(\CCC=C(C)C)C(=O)O` [FUSIDIC ACID]?
A: Ratio (Staphylococcus aureus [1]): 4; Ratio (Staphylococcus aureus [2]): 2; fraction unbound [3]: 0.03; MIC (Staphylococcus aureus [4]): 0.14 µg/mL (≈ 0.271 µM); MIC (Staphylococcus aureus [5]): 6.73 µg/mL; MIC (Staphylococcus aureus [6]): 0.14 µg/mL (≈ 0.271 µM); MIC (Staphylococcus aureus [7]): 6.73 µg/mL

Q: Which results are given for `CC(=O)NC[C@H]1CN(c2ccc(N3CCOCC3)c(F)c2)C(=O)O1` [LINEZOLID]?
A: MBC (Staphylococcus aureus [8]): > 32 µg/mL; MIC (Staphylococcus aureus [4]): 3.73 µg/mL (≈ 11.1 µM); MIC (Staphylococcus aureus [5]): 2.55 µg/mL; MIC (Staphylococcus aureus [6]): 3.73 µg/mL (≈ 11.1 µM); MBC (Staphylococcus aureus [9]): > 32 µg/mL; MIC (Staphylococcus aureus [7]): 2.55 µg/mL; MBC (Staphylococcus aureus [10]): > 32 µg/mL; MBC (Staphylococcus aureus [11]): > 32 µg/mL

Q: For `CN[C@H](CC(C)C)C(=O)N[C@H]1C(=O)N[C@@H](CC(N)=O)C(=O)N[C@H]2C(=O)N[C@H]3C(=O)N[C@H](C(=O)N[C@H](C(=O)O)c4cc(O)cc(O)c4-c4cc3ccc4O)[C@H](O)c3ccc(c(Cl)c3)Oc3cc2cc(c3O[C@@H]2O[C@H](CO)[C@@H](O)[C@H](O)[C@H]2O[C@H]2C[C@](C)(N)[C@H](O)[C@H](C)O2)Oc2ccc(cc2Cl)[C@H]1O` [VANCOMYCIN], which Time (Staphylococcus aureus [12]) is on record?
A: 12 h

Q: And the Time (Staphylococcus aureus [13])?
A: 12.8 h

Q: What about the Time (Staphylococcus aureus [14]) of the same molecule?
A: 13.5 h

Q: And the Time (Staphylococcus aureus [15])?
A: 10.6 h

Q: What about the fraction unbound [3] of the same molecule?
A: 0.45

Q: What about the MBC (Staphylococcus aureus [8]) of the same molecule?
A: 1.74 µg/mL (≈ 1.2 µM)

Q: What about the MIC (Staphylococcus aureus [4]) of the same molecule?
A: 1.62 µg/mL (≈ 1.12 µM)

Q: What about the MIC (Staphylococcus aureus [5]) of the same molecule?
A: 1.46 µg/mL

Q: What about the Time (Staphylococcus aureus [16]) of the same molecule?
A: 15.6 h

Q: And the MIC (Staphylococcus aureus [6])?
A: 1.62 µg/mL (≈ 1.12 µM)

Q: And the Time (Staphylococcus aureus [17])?
A: 15 h

Q: And the MBC (Staphylococcus aureus [9])?
A: 1.74 µg/mL (≈ 1.2 µM)

Q: What about the Time (Staphylococcus aureus [18]) of the same molecule?
A: 17 h

Q: What about the MIC (Staphylococcus aureus [7]) of the same molecule?
A: 1.46 µg/mL

Q: And the MBC (Staphylococcus aureus [10])?
A: 1.52 µg/mL

Q: What about the MBC (Staphylococcus aureus [11]) of the same molecule?
A: 1.52 µg/mL

Q: What about the Time (Staphylococcus aureus [19]) of the same molecule?
A: 17 h

Q: Which Time (Staphylococcus aureus [12]) does the source give for `COc1cc(Cc2cnc(N)nc2N)c2c(c1OC)OC(C1CC1)C=C2` (configuration not stated) here?
A: 6 h

Q: And the Time (Staphylococcus aureus [13])?
A: 7.2 h

Q: And the Ratio (Staphylococcus aureus [1])?
A: 1

Q: What about the Ratio (Staphylococcus aureus [2]) of the same molecule?
A: 1

Q: And the Time (Staphylococcus aureus [15])?
A: 5.5 h

Q: And the fraction unbound [3]?
A: 0.07

Q: And the MBC (Staphylococcus aureus [8])?
A: 0.1 µg/mL (≈ 0.282 µM)

Q: What about the MIC (Staphylococcus aureus [4]) of the same molecule?
A: 0.09 µg/mL (≈ 0.254 µM)

Q: And the Time (Staphylococcus aureus [20])?
A: 6.8 h

Q: What about the MIC (Staphylococcus aureus [5]) of the same molecule?
A: 0.11 µg/mL

Q: What about the Time (Staphylococcus aureus [21]) of the same molecule?
A: 7.6 h

Q: What about the Ratio (Staphylococcus aureus [22]) of the same molecule?
A: 1

Q: And the MIC (Staphylococcus aureus [6])?
A: 0.09 µg/mL (≈ 0.254 µM)

Q: What about the Time (Staphylococcus aureus [17]) of the same molecule?
A: 6.2 h

Q: And the MBC (Staphylococcus aureus [9])?
A: 0.1 µg/mL (≈ 0.282 µM)

Q: What about the Time (Staphylococcus aureus [18]) of the same molecule?
A: 5 h

Q: What about the MIC (Staphylococcus aureus [7]) of the same molecule?
A: 0.11 µg/mL

Q: What about the MBC (Staphylococcus aureus [10]) of the same molecule?
A: 0.11 µg/mL

Q: And the MBC (Staphylococcus aureus [11])?
A: 0.11 µg/mL

Q: What about the Time (Staphylococcus aureus [19]) of the same molecule?
A: 6.1 h

Q: For `CC(=O)N[C@@H]1[C@H](Oc2c3cc4cc2Oc2ccc(cc2Cl)[C@@H](O[C@@H]2O[C@@H](CO)[C@@H](O)[C@H](O)[C@@H]2NC(C)=O)[C@@H]2NC(=O)[C@H](NC(=O)[C@@H]4NC(=O)[C@H]4NC(=O)[C@@H](Cc5ccc(c(Cl)c5)O3)NC(=O)[C@H](N)c3ccc(O)c(c3)Oc3cc(O)cc4c3)c3ccc(O)c(c3)-c3c(O[C@H]4O[C@H](CO)[C@@H](O)[C@@H](O)[C@@H]4O)cc(O)cc3[C@@H](C(=O)O)NC2=O)O[C@@H](CO)[C@@H](O)[C@@H]1O`, which Ratio (Staphylococcus aureus [1]) is on record?
A: 1

Q: What about the Ratio (Staphylococcus aureus [2]) of the same molecule?
A: 1

Q: And the MBC (Staphylococcus aureus [8])?
A: 1.41 µg/mL (≈ 0.798 µM)

Q: What about the MIC (Staphylococcus aureus [4]) of the same molecule?
A: 1.07 µg/mL (≈ 0.605 µM)

Q: And the MIC (Staphylococcus aureus [5])?
A: 1.23 µg/mL

Q: What about the MIC (Staphylococcus aureus [6]) of the same molecule?
A: 1.07 µg/mL (≈ 0.605 µM)

Q: What about the MBC (Staphylococcus aureus [9]) of the same molecule?
A: 1.41 µg/mL (≈ 0.798 µM)

Q: What about the MIC (Staphylococcus aureus [7]) of the same molecule?
A: 1.23 µg/mL

Q: And the MBC (Staphylococcus aureus [10])?
A: 1.68 µg/mL

Q: What about the MBC (Staphylococcus aureus [11]) of the same molecule?
A: 1.68 µg/mL
